test system: interaction between Human tRNA^Lys3 and HIV-1 genomic RNA; assay: Biochemical HIV-1 tRNA Inhibition Assay (AlphaScreen); type: binding; parameters: key: +: showing some activity; ++: intermediate activity; +++: the highest activity; conditions: active compounds from high throughput screening, prioritized on IC50
Text: The methods for detecting binding of the target RNA to the tRNA or the inhibition of such binding may be performed using any method for such detection. For example, the AlphaScreen® assay (Packard Instrument Company, Meriden, Conn.). AlphaScreen® technology is an “Amplified Luminescent Proximity Homogeneous Assay” method utilizing latex microbeads (250 nm diameter) containing a photosensitizer (donor beads), or chemiluminescent groups and fluorescent acceptor molecules (acceptor beads). Upon illumination with laser light at 680 nm, the photosensitizer in the donor bead converts ambient oxygen to singlet-state oxygen. The excited singlet-state oxygen molecules diffuse approximately 250 nm (one bead diameter) before rapidly decaying. If the acceptor bead is in close proximity to the donor bead (i.e., by virtue of the interaction of the target RNA and tRNA fragment), the singlet-state oxygen molecules reacts with chemiluminescent groups in the acceptor beads, which immediately transfer energy to fluorescent acceptors in the same bead. These fluorescent acceptors shift the emission wavelength to 520-620 nm, resulting in a detectable signal. Antagonists of the interaction of the target RNA with the tRNA fragment will thus inhibit the shift in emission wavelength, whereas agonists of this interaction would enhance it.
In the AlphaScreen configuration (FIG. 3) the assay is done in solution using the same RNA as the immobilization assay. The donor and acceptor beads are bound to their respective RNA's. During the screening the RNAs and test drugs/small molecules are incubated together and formation of the complex is measured using the AlphaScreen detection conditions. Utilization of the AlphaScreen assay may allow for the assay to be run at a lower RNA concentration at room temperature, and increase the stability of the complex.
HIV-1 has evolved to use Human tRNA^Lys3 as a primer for initiation of reverse transcription. Therefore, the interaction between tRNA^Lys3 and viral genomic RNA represents a potential novel target for HIV-1 drug development. Based on this hypothesis, a biochemical assay to identify inhibitors of the interaction between Human tRNA^Lys3 and HIV-1 genomic RNA was developed by TRANA Discovery and transferred to Southern Research Institute for high-throughput screening. This assay was developed as a homogeneous amplified luminescent proximity assay using AlphaScreen™ reagents from PerkinElmer. Based on this assay technology, the AlphaScreen™ luminescent signal serves as a mechanism for detecting the interaction between RNA molecules that represent Human tRNA^Lys3 and HIV-1 genomic RNA. The inhibition of the interaction between these RNA molecules by test compounds is detected as a decrease in the AlphaScreen™ luminescent signal.
A preliminary 15,000 compound screen (NINDS Diversity Set) was previously completed and the results were reported through NIAID contract N01-AI-70042. For the results described herein, a 101,000 compound library that was purchased from ChemBridge for the NIAID TAACF program was used. This library was carefully selected for diversity and minimal similarity to the 100,000 compound NINDS library, which is also planned to be screened using the TRANA Discovery Biochemical HIV-1 tRNA Inhibition Assay. The compounds were screened at a concentration of 12.5 μg/mL (first 3 batches) or 25 μg/mL (fourth and final batch).

| Compound | Activity |
| --- | --- |
| Cc1cccc(CNc2ccc3c(c2)OCO3)c1 [1,3-benzodioxol-5-yl(3-methylbenzyl)amine] | + |
| O=C1c2ccccc2C(=O)c2c1cccc2N1CCCC1 [1-(1-pyrrolidinyl)anthra-9,10-quinone] | ++ |
| CC(=NNc1ccccc1[N+](=O)[O-])c1ccco1 [1-(2-furyl)ethanone (2-nitrophenyl)hydrazone] | + |
| O=C1NC(=S)N(c2cccc(Cl)c2)C(=O)C1=Cc1ccco1 [1-(3-chlorophenyl)-5-(2-furylmethylene)-2-thioxodihydro-4,6(1H,5H)-pyrimidinedione] | + |
| Cc1cccc(N2C(=O)C(=Cc3cccn3C)C(=O)NC2=S)c1 [1-(3-methylphenyl)-5-[(1-methyl-1H-pyrrol-2-yl)methylene]-2-thioxodihydro-4,6(1H,5H)-pyrimidinedione] | ++ |
| O=C1NC(=S)N(c2ccc(Cl)cc2)C(=O)C1=Cc1ccco1 [1-(4-chlorophenyl)-5-(2-furylmethylene)-2-thioxodihydro-4,6(1H,5H)-pyrimidinedione] | + |
| Cn1cccc1C=C1C(=O)NC(=S)N(c2ccc(Cl)cc2)C1=O [1-(4-chlorophenyl)-5-[(1-methyl-1H-pyrrol-2-yl)methylene]-2-thioxodihydro-4,6(1H,5H)-pyrimidinedione] | + |
| O=C1NC(=S)N(c2ccc(Cl)cc2)C(=O)C1=Cc1ccc([N+](=O)[O-])o1 [1-(4-chlorophenyl)-5-[(5-nitro-2-furyl)methylene]-2-thioxodihydro-4,6(1H,5H)-pyrimidinedione] | + |
| CCC(=NNc1ccccc1[N+](=O)[O-])c1ccc(O)cc1 [1-(4-hydroxyphenyl)-1-propanone (2-nitrophenyl)hydrazone] | ++ |
| COc1ccc(N2CCN(c3cc(Cl)ccc3[N+](=O)[O-])CC2)cc1 [1-(5-chloro-2-nitrophenyl)-4-(4-methoxyphenyl)piperazine] | + |
| CN(C)c1cccc2c1C(=O)c1ccccc1C2=O [1-(dimethylamino)anthra-9,10-quinone] | ++ |
| CC1(C)CC(Nc2cccc3c2C(=O)c2ccccc2C3=O)CC(C)(C)N1 [1-[(2,2,6,6-tetramethyl-4-piperidinyl)amino]anthra-9,10-quinone] | + |
| Nc1c(Cl)cc(N2CCCC2)c2c1C(=O)c1ccccc1C2=O [1-amino-2-chloro-4-(1-pyrrolidinyl)anthra-9,10-quinone] | + |
| Cc1ccc(N2CCCCC2)c2c1C(=O)c1ccccc1C2=O [1-methyl-4-(1-piperidinyl)anthra-9,10-quinone] | ++ |
| Cc1ccc(Nc2cc(C)c(O)c(C)c2)cc1 [2,6-dimethyl-4-[(4-methylphenyl)amino]phenol] | ++ |
| O=C1C(Cl)=C(NCc2ccccc2)C(=O)c2ccccc21 [2-(benzylamino)-3-chloronaphthoquinone] | + |
| Cc1cccc(NC2=C(N(C)C)C(=O)c3ccccc3C2=O)c1 [2-(dimethylamino)-3-[(3-methylphenyl)amino]naphthoquinone] | ++ |
| Cc1cccc(NC2=C(NCCO)C(=O)c3ccccc3C2=O)c1 [2-[(2-hydroxyethyl)amino]-3-[(3-methylphenyl)amino]naphthoquinone] | + |
| Cc1ccccc1NC1=C(N2CCOCC2)C(=O)c2ccccc2C1=O [2-[(2-methylphenyl)amino]-3-(4-morpholinyl)naphthoquinone] | ++ |
| O=C1C(Nc2ccc(F)c(F)c2)=C(N2CCOCC2)C(=O)c2ccccc21 [2-[(3,4-difluorophenyl)amino]-3-(4-morpholinyl)naphthoquinone] | + |
| O=C1C(Nc2cc(F)cc(F)c2)=C(N2CCOCC2)C(=O)c2ccccc21 [2-[(3,5-difluorophenyl)amino]-3-(4-morpholinyl)naphthoquinone] | ++ |
| O=C1C(Nc2cccc(Cl)c2)=C(N2CCOCC2)C(=O)c2ccccc21 [2-[(3-chlorophenyl)amino]-3-(4-morpholinyl)naphthoquinone] | ++ |

| Compound | Activity |
| --- | --- |
| O=C1C(Nc2cccc(F)c2)=C(N2CCCC2)C(=O)c2ccccc21 [2-[(3-fluorophenyl)amino]-3-(1-pyrrolidinyl)naphthoquinone] | ++ |
| O=C1C(Nc2cccc(O)c2)=C(N2CCCCC2)C(=O)c2ccccc21 [2-[(3-hydroxyphenyl)amino]-3-(1-piperidinyl)naphthoquinone] | + |
| COc1cccc(NC2=C(N3CCCCC3)C(=O)c3ccccc3C2=O)c1 [2-[(3-methoxyphenyl)amino]-3-(1-piperidinyl)naphthoquinone] | ++ |
| COc1cccc(NC2=C(N3CCCC3)C(=O)c3ccccc3C2=O)c1 [2-[(3-methoxyphenyl)amino]-3-(1-pyrrolidinyl)naphthoquinone] | ++ |
| COc1cccc(NC2=C(N3CCOCC3)C(=O)c3ccccc3C2=O)c1 [2-[(3-methoxyphenyl)amino]-3-(4-morpholinyl)naphthoquinone] | ++ |
| Cc1cccc(NC2=C(N3CCCC3)C(=O)c3ccccc3C2=O)c1 [2-[(3-methylphenyl)amino]-3-(1-pyrrolidinyl)naphthoquinone] | ++ |
| Cc1cccc(NC2=C(N3CCOCC3)C(=O)c3ccccc3C2=O)c1 [2-[(3-methylphenyl)amino]-3-(4-morpholinyl)naphthoquinone] | ++ |
| Cc1ccc2c(C)nc(Nc3nc(C)cc(O)n3)nc2c1 [2-[(4,7-dimethyl-2-quinazolinyl)amino]-6-methyl-4-pyrimidinol] | + |
| CC(=O)c1ccc(NC2=C(N3CCCC3)C(=O)c3ccccc3C2=O)cc1 [2-[(4-acetylphenyl)amino]-3-(1-pyrrolidinyl)naphthoquinone] | ++ |
| O=[N+]([O-])c1ccc(Nc2ccccc2O)c2nonc12 [2-[(7-nitro-2,1,3-benzoxadiazol-4-yl)amino]phenol] | ++ |
| Cc1ccccc1NC1=C(N)C(=O)c2ccccc2C1=O [2-amino-3-[(2-methylphenyl)amino]naphthoquinone] | + |
| O=C(NN1C(=O)C(=Cc2ccc(O)c(O)c2)SC1=S)c1ccccc1Br [2-bromo-N-[5-(3,4-dihydroxybenzylidene)-4-oxo-2-thioxo-1,3-thiazolidin-3-yl]benzamide] | + |
| CN(C)C1=C(Cl)C(=O)c2ccccc2C1=O [2-chloro-3-(dimethylamino)naphthoquinone] | ++ |
| CC(C)NC1=C(Cl)C(=O)c2ccccc2C1=O [2-chloro-3-(isopropylamino)naphthoquinone] | + |
| O=[N+]([O-])c1ccccc1NN=Cc1ccc(O)c(O)c1 [3,4-dihydroxybenzaldehyde (2-nitrophenyl)hydrazone] | ++ |
| C=CCN1C(=O)C(=Cc2cc(Cl)cc(Cl)c2O)SC1=S [3-allyl-5-(3,5-dichloro-2-hydroxybenzylidene)-2-thioxo-1,3-thiazolidin-4-one] | + |
| NN1C(=O)C(=Cc2ccc(O)c(O)c2)SC1=S [3-amino-5-(3,4-dihydroxybenzylidene)-2-thioxo-1,3-thiazolidin-4-one] | + |
| CCCCOc1cccc(C(=O)NC(=S)Nc2ccc(N(C)C)cc2)c1 [3-butoxy-N-({[4-(dimethylamino)phenyl]amino}carbonothioyl)benzamide] | + |
| CN(CCN(C)N=Cc1cccc([N+](=O)[O-])c1)N=Cc1cccc([N+](=O)[O-])c1 [3-nitrobenzaldehyde 1,2-ethanediyl(methylhydrazone)] | + |
| Cc1ccc2c(c1)-c1c(s[s+]c1SCC(=O)c1ccc([N+](=O)[O-])cc1)C(C)(C)N2.[Cl-] [4,4,8-trimethyl-1-{[2-(4-nitrophenyl)-2-oxoethyl]thio}-4,5-dihydro[1,2]dithiolo[3,4-c]quinolin-2-ium chloride] | ++ |
| O=[N+]([O-])c1ccc(Nc2ccc(O)cc2)c2nonc12 [4-[(7-nitro-2,1,3-benzoxadiazol-4-yl)amino]phenol] | ++ |
| CN1C(=O)C(=Cc2c(Cl)ccc([N+](=O)[O-])c2Cl)SC1=S [5-(2,6-dichloro-3-nitrobenzylidene)-3-methyl-2-thioxo-1,3-thiazolidin-4-one] | ++ |
